Numbered stars: 1 amine (or outer) side, 2 acyl side, 3 side chain; on linkers, the order of the positions; unused ones are H or OH. Square brackets hold non-standard residues; d marks the D form. Side chains are listed from the residue outwards. Peptide text beside a SMILES is read from it. * marks the point of attachment. C18 diacid = O=C(O)CCCCCCCCCCCCCCCCC(=O)*; γGlu = O=C(O)[C@H](CCC(=O)[*:2])N[*:1]; AEEA = NCCOCCOCC(=O)O; Aib = CC(C)(N)C(=O)O

In the experiment the target is glucagon receptor (Homo sapiens, UniProt P47871). The experiment in a line: cell-based.
Chain of glucagon receptor (P47871 26-477): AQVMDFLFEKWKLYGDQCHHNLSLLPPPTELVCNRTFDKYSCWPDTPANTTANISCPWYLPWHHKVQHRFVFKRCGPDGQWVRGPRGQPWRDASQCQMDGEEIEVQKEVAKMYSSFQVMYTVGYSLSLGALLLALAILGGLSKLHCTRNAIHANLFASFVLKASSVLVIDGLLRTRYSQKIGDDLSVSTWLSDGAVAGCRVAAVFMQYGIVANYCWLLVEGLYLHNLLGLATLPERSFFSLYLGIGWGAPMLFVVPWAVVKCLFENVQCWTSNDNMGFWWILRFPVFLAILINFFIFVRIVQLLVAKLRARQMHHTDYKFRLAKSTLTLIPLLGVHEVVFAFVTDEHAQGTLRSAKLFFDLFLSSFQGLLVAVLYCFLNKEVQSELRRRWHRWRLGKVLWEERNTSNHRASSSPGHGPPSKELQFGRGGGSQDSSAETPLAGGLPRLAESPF
As a reminder, the EC50 is the concentration needed to bring the measured effect to its halfway point. Read a high EC50 as a need for much substance. In the case of `CC(C)C[C@H](NC(=O)[C@H](Cc1ccc(O)cc1)NC(=O)[C@H](CCCCN)NC(=O)[C@H](CO)NC(=O)[C@H](Cc1ccc(O)cc1)NC(=O)[C@H](CC(=O)O)NC(=O)[C@H](CO)NC(=O)[C@@H](NC(=O)[C@H](Cc1ccccc1)NC(=O)[C@@H](NC(=O)CNC(=O)[C@H](CCC(N)=O)NC(=O)[C@H](CO)NC(=O)[C@@H](N)Cc1c[nH]cn1)[C@@H](C)O)[C@@H](C)O)C(=O)N[C@@H](CC(=O)O)C(=O)N[C@@H](CO)C(=O)N[C@@H](CCCCN)C(=O)N[C@@H](C)C(=O)N[C@@H](C)C(=O)N[C@@H](CCC(N)=O)C(=O)N[C@@H](CCC(=O)O)C(=O)N[C@@H](Cc1ccccc1)C(=O)N[C@H](C(=O)N[C@@H](CCCCNC(=O)COCCOCCNC(=O)COCCOCCNC(=O)CC[C@H](NC(=O)CCCCCCCCCCCCCCCCC(=O)O)C(=O)O)C(=O)N[C@@H](Cc1c[nH]c2ccccc12)C(=O)N[C@@H](CC(C)C)C(=O)N[C@@H](CC(C)C)C(=O)N[C@@H](CC(N)=O)C(=O)N[C@H](C(N)=O)[C@@H](C)O)C(C)C` [Example 37, N^ε24-([2-[2-[2-[[2-[2-[2-[[(4S)-5-hydroxy-4-[(18-hydroxy-18-oxooctadecanoyl)amino]-5-oxopentanoyl]amino]ethoxy]ethoxy]acetyl]amino]ethoxy]ethoxy]acetyl])[Lys^17, Ala^18,Glu^21, Lys^24, Leu^27] Glucagon peptide amide] (H-HSQGTFTSDYSKYLDSKAAQEFVK([AEEA-AEEA-γGlu-C18 diacid])WLLNT-NH2; N-terminus assumed), the EC50 was determined as 0.033 nM. This lies in the picomolar range.

The compound `CC(C)C[C@H](NC(=O)[C@H](Cc1ccc(O)cc1)NC(=O)[C@H](CCCCN)NC(=O)[C@H](CO)NC(=O)[C@H](Cc1ccc(O)cc1)NC(=O)[C@H](CC(=O)O)NC(=O)[C@H](CO)NC(=O)[C@@H](NC(=O)[C@H](Cc1ccccc1)NC(=O)[C@@H](NC(=O)CNC(=O)[C@H](CCC(N)=O)NC(=O)[C@H](CO)NC(=O)[C@@H](N)Cc1c[nH]cn1)[C@@H](C)O)[C@@H](C)O)C(=O)N[C@@H](CC(=O)O)C(=O)N[C@@H](CCC(=O)O)C(=O)N[C@@H](CCCCN)C(=O)N[C@@H](CCCNC(=N)N)C(=O)N[C@@H](C)C(=O)N[C@@H](CCC(N)=O)C(=O)N[C@@H](CCC(=O)O)C(=O)N[C@@H](Cc1ccccc1)C(=O)N[C@H](C(=O)N[C@@H](CCCCNC(=O)COCCOCCNC(=O)COCCOCCNC(=O)CC[C@H](NC(=O)CCCCCCCCCCCCCCCCC(=O)O)C(=O)O)C(=O)N[C@@H](Cc1c[nH]c2ccccc12)C(=O)N[C@@H](CC(C)C)C(=O)N[C@@H](CC(C)C)C(=O)N[C@@H](CC(N)=O)C(=O)N[C@H](C(N)=O)[C@@H](C)O)C(C)C` [Example 38, N^ε24-([2-[2-[2-[[2-[2-[2-[[(4S)-5-hydroxy-4-[(18-hydroxy-18-oxooctadecanoyl)amino]-5-oxopentanoyl]amino]ethoxy]ethoxy]acetyl]amino]ethoxy]ethoxy]acetyl])[Glu^16, Lys^17, Glu^21, Lys^24,Leu^27] Glucagon peptide amide] (H-HSQGTFTSDYSKYLDEKRAQEFVK([AEEA-AEEA-γGlu-C18 diacid])WLLNT-NH2; N-terminus assumed) displayed an EC50 of 0.015 nM. Compared with the last compound, the EC50 is about 2.2-fold lower. Take `CC(C)C[C@H](NC(=O)[C@H](Cc1ccc(O)cc1)NC(=O)[C@H](CCCCN)NC(=O)[C@H](CO)NC(=O)[C@H](Cc1ccc(O)cc1)NC(=O)[C@H](CC(=O)O)NC(=O)[C@H](CO)NC(=O)[C@@H](NC(=O)[C@H](Cc1ccccc1)NC(=O)[C@@H](NC(=O)CNC(=O)[C@H](CCC(N)=O)NC(=O)C(C)(C)NC(=O)[C@@H](N)Cc1c[nH]cn1)[C@@H](C)O)[C@@H](C)O)C(=O)N[C@@H](CC(=O)O)C(=O)N[C@@H](CCCCNC(=O)COCCOCCNC(=O)COCCOCCNC(=O)CC[C@H](NC(=O)CCCCCCCCCCCCCCCCC(=O)O)C(=O)O)C(=O)N[C@@H](CCCCN)C(=O)N[C@@H](CCCNC(=N)N)C(=O)N[C@@H](C)C(=O)N[C@@H](CCC(N)=O)C(=O)N[C@@H](CCC(=O)O)C(=O)N[C@@H](Cc1ccccc1)C(=O)N[C@H](C(=O)N[C@@H](CCC(N)=O)C(=O)N[C@@H](Cc1c[nH]c2ccccc12)C(=O)N[C@@H](CC(C)C)C(=O)N[C@@H](CC(C)C)C(=O)N[C@@H](CC(N)=O)C(=O)N[C@H](C(N)=O)[C@@H](C)O)C(C)C` [Example 39, N^ε16-([2-[2-[2-[[2-[2-[2-[[(4S)-5-hydroxy-4-[(18-hydroxy-18-oxooctadecanoyl)amino]-5-oxopentanoyl]amino]ethoxy]ethoxy]acetyl]amino]ethoxy]ethoxy]acetyl]) [Aib^2, Lys^16, Lys^17, Glu^21,Leu^27] Glucagon peptide amide] (H-H[Aib]QGTFTSDYSKYLDK([AEEA-AEEA-γGlu-C18 diacid])KRAQEFVQWLLNT-NH2; N-terminus assumed): it took 0.007 nM to reach a half-maximal effect (EC50).

Compound `CC(C)C[C@H](NC(=O)[C@H](Cc1ccc(O)cc1)NC(=O)[C@H](CCCCN)NC(=O)[C@H](CO)NC(=O)[C@H](Cc1ccc(O)cc1)NC(=O)[C@H](CC(=O)O)NC(=O)[C@H](CO)NC(=O)[C@@H](NC(=O)[C@H](Cc1ccccc1)NC(=O)[C@@H](NC(=O)CNC(=O)[C@H](CCC(N)=O)NC(=O)[C@H](CO)NC(=O)[C@@H](N)Cc1c[nH]cn1)[C@@H](C)O)[C@@H](C)O)C(=O)N[C@@H](CC(=O)O)C(=O)N[C@@H](CO)C(=O)N[C@@H](CCCCN)C(=O)N[C@@H](CCCNC(=N)N)C(=O)N[C@@H](C)C(=O)N[C@@H](CCC(N)=O)C(=O)N[C@@H](CCC(=O)O)C(=O)N[C@@H](Cc1ccccc1)C(=O)N[C@H](C(=O)N[C@@H](CCCCNC(=O)COCCOCCNC(=O)COCCOCCNC(=O)CC[C@H](NC(=O)CCCCCCCCCCCCCCCCC(=O)O)C(=O)O)C(=O)N[C@@H](Cc1c[nH]c2ccccc12)C(=O)N[C@@H](CC(C)C)C(=O)N[C@@H](CC(C)C)C(=O)N[C@@H](CO)C(=O)N[C@H](C(N)=O)[C@@H](C)O)C(C)C` [Example 40, N^ε24-([2-[2-[2-[[2-[2-[2-[[(4S)-5-hydroxy-4-[(18-hydroxy-18-oxooctadecanoyl)amino]-5-oxopentanoyl]amino]ethoxy]ethoxy]acetyl]amino]ethoxy]ethoxy]acetyl]) [Lys^17, Glu^21,Lys^24,Leu^27,Ser^28]Glucagon peptide amide] (H-HSQGTFTSDYSKYLDSKRAQEFVK([AEEA-AEEA-γGlu-C18 diacid])WLLST-NH2; N-terminus assumed) came in with an EC50 of 0.007 nM. That is a picomolar value.

In turn, `CC(C)C[C@H](NC(=O)[C@H](Cc1ccc(O)cc1)NC(=O)[C@H](CCCCN)NC(=O)[C@H](CO)NC(=O)[C@H](Cc1ccc(O)cc1)NC(=O)[C@H](CC(=O)O)NC(=O)[C@H](CO)NC(=O)[C@@H](NC(=O)[C@H](Cc1ccccc1)NC(=O)[C@@H](NC(=O)CNC(=O)[C@H](CCC(N)=O)NC(=O)[C@H](CO)NC(=O)[C@@H](N)Cc1c[nH]cn1)[C@@H](C)O)[C@@H](C)O)C(=O)N[C@@H](CC(=O)O)C(=O)N[C@@H](CO)C(=O)N[C@@H](CCCCN)C(=O)N[C@@H](CCCNC(=N)N)C(=O)N[C@@H](C)C(=O)N[C@@H](CCC(N)=O)C(=O)N[C@@H](CCC(=O)O)C(=O)N[C@@H](Cc1ccccc1)C(=O)N[C@H](C(=O)N[C@@H](CCCCNC(=O)COCCOCCNC(=O)COCCOCCNC(=O)CC[C@H](NC(=O)CCCCCCCCCCCCCCCCC(=O)O)C(=O)O)C(=O)N[C@@H](Cc1c[nH]c2ccccc12)C(=O)N[C@@H](CC(C)C)C(=O)N[C@@H](CC(C)C)C(=O)N[C@@H](CCC(=O)O)C(=O)N[C@H](C(N)=O)[C@@H](C)O)C(C)C` [Example 41, N^ε24-([2-[2-[2-[[2-[2-[2-[[(4S)-5-hydroxy-4-[(18-hydroxy-18-oxooctadecanoyl)amino]-5-oxopentanoyl]amino]ethoxy]ethoxy]acetyl]amino]ethoxy]ethoxy]acetyl])[Lys^17, Glu^21,Lys^24,Leu^27,Glu^28,]Glucagon peptide amide] (H-HSQGTFTSDYSKYLDSKRAQEFVK([AEEA-AEEA-γGlu-C18 diacid])WLLET-NH2; N-terminus assumed) had an EC50 of 0.003 nM.

In the case of `CC(C)C[C@H](NC(=O)[C@H](Cc1ccc(O)cc1)NC(=O)[C@H](CCCCN)NC(=O)[C@H](CO)NC(=O)[C@H](Cc1ccc(O)cc1)NC(=O)[C@H](CC(=O)O)NC(=O)[C@H](CO)NC(=O)[C@@H](NC(=O)[C@H](Cc1ccccc1)NC(=O)[C@@H](NC(=O)CNC(=O)[C@H](CCC(N)=O)NC(=O)[C@H](CO)NC(=O)[C@@H](N)Cc1c[nH]cn1)[C@@H](C)O)[C@@H](C)O)C(=O)N[C@@H](CC(=O)O)C(=O)N[C@@H](CO)C(=O)N[C@@H](CCCCN)C(=O)N[C@@H](CCCNC(=N)N)C(=O)N[C@@H](C)C(=O)N[C@@H](CCC(N)=O)C(=O)N[C@@H](CCC(=O)O)C(=O)N[C@@H](Cc1ccccc1)C(=O)N[C@H](C(=O)N[C@@H](CCC(N)=O)C(=O)N[C@@H](Cc1c[nH]c2ccccc12)C(=O)N[C@@H](CC(C)C)C(=O)N[C@@H](CC(C)C)C(=O)N[C@@H](CC(N)=O)C(=O)N[C@H](C(=O)N[C@@H](CCCCNC(=O)COCCOCCNC(=O)COCCOCCNC(=O)CC[C@H](NC(=O)CCCCCCCCCCCCCCCCC(=O)O)C(=O)O)C(N)=O)[C@@H](C)O)C(C)C` [Example 42, N^α-([Lys^17, Glu^21, Leu^27] Glucagonyl) N^ε-([2-[2-[2-[[2-[2-[2-[[(4S)-5-hydroxy-4-[(18-hydroxy-18-oxooctadecanoyl)amino]-5-oxopentanoyl]amino]ethoxy]ethoxy]acetyl]amino]ethoxy]ethoxy]acetyl]) Lysinyl amide] (H-HSQGTFTSDYSKYLDSKRAQEFVQWLLNTK([AEEA-AEEA-γGlu-C18 diacid])-NH2; N-terminus assumed), the midpoint of the response, the EC50, lay at 0.017 nM. Against the preceding compound, the EC50 is about 5.7-fold higher.

For the origin of these results see US20160271263A1 (Novo Nordisk A/S, priority 2010, published 2016).
